Measurements from ChEMBL document CHEMBL5143566, “Discovery of Pyrazolo[1,5-a]pyrazin-4-ones as Potent and Brain Penetrant GluN2A-Selective Positive Allosteric Modulators Reducing AMPA Receptor Binding Activity” (Bioorg Med Chem, 2022).
Calls of active or inactive are those of the source. No cut-off for these calls is given here.

What was measured:
Glutamate receptor 2 [1] = molecular target: T1, Glutamate receptor 2 (Homo sapiens, UniProt P42262); assay: Positive allosteric modulator activity at GluA2-AMPA receptor (unknown origin) by FLIPR assay
[2] = molecular target: Glutamate receptor ionotropic, NMDA 2A (Homo sapiens, UniProt Q05586+Q12879); assay: Positive allosteric modulator activity at GluN2A receptor (unknown origin) by FLIPR assay
[3] = molecular target: Glutamate receptor ionotropic, NMDA 2A (Homo sapiens) (UniProt Q12879); assay: Positive allosteric modulator activity at GluN2A receptor (unknown origin) assessed as maximum potentiation by FLIPR assay relative to control; details: filed as positive allosteric modulator
[4] = 1-Octanol/aqueous buffer distribution coefficient, log D of the compound at pH 7.4 by HPLC analysis; type: physicochemical
Glutamate receptor 2 [5] = molecular target: T1, Glutamate receptor 2; assay: Displacement of [3H]-HBT1 from GluA2-AMPA receptor (unknown origin) in presence of glutamate by scintillation proximity assay
Glutamate receptor 2 [6] = molecular target: T1, Glutamate receptor 2; assay: Positive allosteric modulator activity at GluA2-AMPA receptor (unknown origin) assessed as maximum potentiation by FLIPR assay relative to control
[7] = molecular target: T2, Glutamate NMDA receptor; GRIN1/GRIN2A (Homo sapiens, UniProt Q05586+Q12879); assay: Positive allosteric modulator activity at GluN1a/GluN2A (unknown origin) expressed in CHO cells in presence of glutamate by Ca2+ influx assay; type: cell-based
Glutamate receptor 2 [8] = molecular target: T1, Glutamate receptor 2; assay: Displacement of [3H]-HBT1 from His-tagged GluA2-AMPA (unknown origin) receptor expressed in CHO cells in presence of glutamate by scintillation proximity assay; type: cell-based
[9] = Clearance in rat liver microsomes at 1 uM in presence of NADPH measured for 15 to 30 min by LC-MS/MS analysis; type: ADME, Microsome; details: time 15-30 min, read-out: CLH
[10] = molecular target: T2, Glutamate NMDA receptor; GRIN1/GRIN2A; assay: Positive allosteric modulator activity at GluN1a/GluN2A (unknown origin) expressed in CHO cells assessed as maximum potentiation at 30 uM in presence of glutamate by Ca2+ influx assay relative to control; type: cell-based
[11] = Clearance in human liver microsomes at 1 uM in presence of NADPH measured for 15 to 30 min by LC-MS/MS analysis; type: ADME, Microsome; details: time 15-30 min, read-out: CLH
[12] = Oral bioavailability in rat at 10 mg/kg by LC-MS/MS analysis; type: ADME, organism-based; details: in vivo
[13] = AUC in rat at 10 mg/kg, po by LC-MS/MS analysis; type: ADME, organism-based; parameters: dose 10 mg/kg, route po; details: in vivo
[14] = molecular target: Ionotropic glutamate receptor NMDA 1/2D (Homo sapiens, UniProt O15399+Q05586); assay: Positive allosteric modulator activity at GluN1a/GluN2D (unknown origin) expressed in CHO cells in presence of glutamate by Ca2+ influx assay; type: cell-based
[15] = MRT in rat at 10 mg/kg, po by LC-MS/MS analysis; type: ADME, organism-based; details: in vivo
[16] = Drug concentration in rat brain at 3 mg/kg, po after 2 hrs by LC-MS/MS analysis; type: ADME, organism-based; details: read-out: Ct
[17] = Cmax in rat at 1 mg/kg, iv by LC-MS/MS analysis; type: ADME, organism-based; parameters: dose 1 mg/kg, route iv; details: in vivo
Homo sapiens [18] = species on record: Homo sapiens; assay: Selectivity index, ratio of EC50 for GluN1a/GluN2B (unknown origin) expressed in CHO cells to EC50 for GluN1a/GluN2A (unknown origin) expressed in CHO cells; type: cell-based
Homo sapiens [19] = species on record: Homo sapiens; assay: Selectivity index, ratio of EC50 for GluN1a/GluN2D (unknown origin) expressed in CHO cells to EC50 for GluN1a/GluN2A (unknown origin) expressed in CHO cells; type: cell-based
[20] = Ratio of drug concentration in brain to plasma at 3 mg/kg, po after 1 hr by LC-MS/MS analysis; type: ADME, organism-based; details: rat, brain and plasma, read-out: BPR
[21] = Drug concentration in rat plasma at 3 mg/kg, po after 2 hrs by LC-MS/MS analysis; type: ADME, organism-based
[22] = Drug concentration in rat plasma at 3 mg/kg, po after 0.5 hrs by LC-MS/MS analysis; type: ADME, organism-based
[23] = molecular target: T3, Ionotropic glutamate receptor NMDA 1/2C (Homo sapiens, UniProt Q05586+Q14957); assay: Positive allosteric modulator activity at GluN1a/GluN2C (unknown origin) expressed in CHO cells in presence of glutamate by Ca2+ influx assay; type: cell-based
[24] = Volume of distribution at steady state in rat at 1 mg/kg, iv by LC-MS/MS analysis; type: ADME, organism-based; details: in vivo, read-out: Vdss
Rattus norvegicus = assay: Induction of LTP enhancement in Sprague-Dawley rat assessed as increase in LTP enhancement in hippocampal slices at 10 mg/kg, po; type: functional, organism-based
[25] = Drug concentration in rat brain at 3 mg/kg, po after 0.5 hrs by LC-MS/MS analysis; type: ADME, organism-based; details: read-out: Ct
[26] = Total clearance in rat at 1 mg/kg, iv by LC-MS/MS analysis; type: ADME, organism-based; details: in vivo
[27] = molecular target: T3, Ionotropic glutamate receptor NMDA 1/2C; assay: Positive allosteric modulator activity at GluN1a/GluN2C (unknown origin) expressed in CHO cells at 30 uM in presence of glutamate by Ca2+ influx assay relative to control; type: cell-based; details: filed as positive allosteric modulator
[28] = Drug concentration in rat brain at 3 mg/kg, po after 1 hrs by LC-MS/MS analysis; type: ADME, organism-based; details: read-out: Ct
[29] = Ratio of drug concentration in brain to plasma at 3 mg/kg, po after 0.5 hr by LC-MS/MS analysis; type: ADME, organism-based; details: rat, brain and plasma, read-out: BPR
[30] = Ratio of drug concentration in brain to plasma at 3 mg/kg, po after 2 hr by LC-MS/MS analysis; type: ADME, organism-based; details: rat, brain and plasma, read-out: BPR
[31] = molecular target: Ionotropic glutamate receptor NMDA 1/2D (Homo sapiens) (UniProt Q05586+O15399); assay: Positive allosteric modulator activity at GluN1a/GluN2D (unknown origin) expressed in CHO cells at 30 uM in presence of glutamate by Ca2+ influx assay relative to control; type: cell-based; details: filed as positive allosteric modulator
Homo sapiens [32] = species on record: Homo sapiens; assay: Selectivity index, ratio of EC50 for GluN1a/GluN2C (unknown origin) expressed in CHO cells to EC50 for GluN1a/GluN2A (unknown origin) expressed in CHO cells; type: cell-based
CHO = assay: Positive allosteric modulator activity at GluN1a/GluN2B (unknown origin) expressed in CHO cells at 30 uM in presence of glutamate by Ca2+ influx assay relative to control; type: cell-based; details: Homo sapiens
[33] = Drug concentration in rat plasma at 3 mg/kg, po after 1 hrs by LC-MS/MS analysis; type: ADME, organism-based
[34] = filed as positive allosteric modulator

T1 sequence (P42262 whole entry): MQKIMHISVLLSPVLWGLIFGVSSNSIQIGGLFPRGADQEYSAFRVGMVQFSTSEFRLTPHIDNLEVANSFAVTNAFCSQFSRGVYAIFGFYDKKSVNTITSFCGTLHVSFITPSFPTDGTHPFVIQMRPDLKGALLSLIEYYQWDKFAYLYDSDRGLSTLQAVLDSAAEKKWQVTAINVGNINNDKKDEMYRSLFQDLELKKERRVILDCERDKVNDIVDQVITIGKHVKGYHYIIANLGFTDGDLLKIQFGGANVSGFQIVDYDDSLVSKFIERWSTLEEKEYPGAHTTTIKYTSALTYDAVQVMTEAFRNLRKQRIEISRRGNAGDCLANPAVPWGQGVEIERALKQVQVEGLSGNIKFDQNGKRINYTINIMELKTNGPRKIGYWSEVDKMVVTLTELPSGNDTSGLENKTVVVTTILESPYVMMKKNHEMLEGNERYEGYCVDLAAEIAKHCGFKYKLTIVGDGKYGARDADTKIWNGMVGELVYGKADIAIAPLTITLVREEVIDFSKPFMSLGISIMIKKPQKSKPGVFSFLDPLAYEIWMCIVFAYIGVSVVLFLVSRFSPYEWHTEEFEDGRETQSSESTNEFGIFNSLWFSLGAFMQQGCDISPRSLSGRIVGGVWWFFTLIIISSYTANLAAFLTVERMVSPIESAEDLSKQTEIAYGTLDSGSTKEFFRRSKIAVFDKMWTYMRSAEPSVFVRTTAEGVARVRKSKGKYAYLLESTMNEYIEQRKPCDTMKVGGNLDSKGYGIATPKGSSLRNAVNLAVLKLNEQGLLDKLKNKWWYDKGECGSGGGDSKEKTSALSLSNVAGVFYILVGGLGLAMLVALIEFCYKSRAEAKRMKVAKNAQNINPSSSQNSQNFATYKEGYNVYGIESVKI

Compound: CCN(Cc1ccc(C(=O)N2CCC[C@@H]2C#N)s1)c1ccc(F)cc1
- EC50 (Glutamate receptor 2 [1]): > 30 µM
- EC50 [2]: > 30 µM
- %max [3]: 270%
- logD [4]: 2.06
- IC50 (Glutamate receptor 2 [5]): 1.2 µM
- %max (Glutamate receptor 2 [6]; BLD = below limit of detection): Bld

Compound: N#C[C@H]1C[C@H]1c1c(C(F)(F)F)sc2nc(Cn3nc(C(F)(F)F)cc3Cl)cc(=O)n12
- EC50 (Glutamate receptor 2 [1]): 24 µM
- EC50 [2]: 0.011 µM
- %max [3]: 416%
- IC50 (Glutamate receptor 2 [5]): 0.88 µM
- %max (Glutamate receptor 2 [6]; BLD = below limit of detection): Bld

Compound: Cc1cn(CCC#N)c(=O)c2cc(Cn3nc(Cl)cc3Cl)nn12
- EC50 [7]: > 30 µM
- IC50 (Glutamate receptor 2 [8]): > 30 µM
- microsomal CLint at 1 µM [9]: 13 µL/min/mg
- logD [4]: 2.07
- %max [10]: < 150%

Compound: Cc1cn([C@@H](C)CC#N)c(=O)c2cc(Cn3nc(C(F)F)cc3Cl)nn12
- IC50 (Glutamate receptor 2 [8]): > 30 µM
- logD [4]: 2.06
- %max [10]: < 150%

Compound: CCN(Cc1cc2c(C)cn(CCC#N)c(=O)c2s1)c1ccc(F)cc1
- EC50 [7]: 0.18 µM
- IC50 (Glutamate receptor 2 [8]): > 30 µM
- logD [4]: 3.01
- %max [10, 34]: 480%

Compound: Cc1cc(Cl)n(Cc2cc3c(=O)n(CCC#N)cc(C)n3n2)n1
- microsomal CLint at 1 µM [11]: 8 µL/min/mg
- IC50 (Glutamate receptor 2 [8]): > 30 µM
- microsomal CLint at 1 µM [9]: 10 µL/min/mg
- logD [4]: 1.84
- %max [10]: < 150%

Compound: CCN(Cc1cc2c(=O)n(CCC#N)cc(C)n2n1)c1ccc(F)cc1
- microsomal CLint at 1 µM [11]: 37 µL/min/mg
- EC50 [7]: 0.16 µM
- IC50 (Glutamate receptor 2 [8]): 22 µM
- microsomal CLint at 1 µM [9]: 91 µL/min/mg
- logD [4]: 2.83
- %max [10, 34]: 420%

Compound: Cc1cn(CCC#N)c(=O)c2cc(Cn3nc(C(F)F)cc3Cl)nn12
- EC50 [7]: 2 µM
- IC50 (Glutamate receptor 2 [8]): > 30 µM
- logD [4]: 1.88
- %max [10, 34]: 220%

Compound: CCN(Cc1cc2cc(C)n(CCC#N)c(=O)c2s1)c1ccc(F)cc1
- EC50 [7]: 0.6 µM
- IC50 (Glutamate receptor 2 [8]): 0.61 µM
- logD [4]: 2.95
- %max [10, 34]: 440%

Compound: CCN(Cc1cc2ccn(CC#N)c(=O)c2s1)c1ccc(F)cc1
- EC50 [7]: > 30 µM
- IC50 (Glutamate receptor 2 [8]): > 30 µM
- logD [4]: 2.63
- %max [10, 34]: 230%

Compound: N#C[C@H]1C[C@H]1c1c(Cl)ccc2nc(Cn3nc(C(F)(F)F)cc3Cl)cc(=O)n12
- EC50 (Glutamate receptor 2 [1]): > 30 µM
- EC50 [2]: 0.039 µM
- %max [3]: 471%
- IC50 (Glutamate receptor 2 [5]): 0.38 µM
- %max (Glutamate receptor 2 [6]): 61%

Compound: Cc1cn([C@H](C)CC#N)c(=O)c2cc(Cn3nc(C(F)F)cc3Cl)nn12
- bioavailability [12]: 21.4%
- AUC [13]: 9140 ng·h/mL
- EC50 [14]: > 30 µM
- microsomal CLint at 1 µM [11]: 33 µL/min/mg
- MRT [15]: 3.5 h
- concentration at 2 h [16]: 146 ng/g
- Cmax [17]: 1910 ng/mL
- Ratio EC50 (Homo sapiens [18]): > 59
- Ratio EC50 (Homo sapiens [19]): 19
- Kp at 1 h [20]: 0.47
- concentration at 2 h [21]: 286 ng/mL
- concentration at 0.5 h [22]: 523 ng/mL
- EC50 [7]: 0.51 µM
- EC50 [23]: > 30 µM
- Vd [24]: 0.657 L/kg
- Activity (Rattus norvegicus): Active
- concentration at 0.5 h [25]: 307 ng/g
- IC50 (Glutamate receptor 2 [8]): > 30 µM
- clearance [26]: 3.92 mL/min/kg
- logD [4]: 2.06
- %max [27]: 200%
- concentration at 1 h [28]: 187 ng/g
- %max [10, 34]: 350%
- Kp at 0.5 h [29]: 0.59
- Kp at 2 h [30]: 0.51
- %max [31]: 260%
- Ratio EC50 (Homo sapiens [32]): 19
- %max (CHO): < 150%
- concentration at 1 h [33]: 397 ng/mL

Compound: CCN(Cc1cc2c(=O)n(CCC#N)ccc2s1)c1ccc(F)cc1
- EC50 [7]: > 30 µM
- IC50 (Glutamate receptor 2 [8]): 0.61 µM
- logD [4]: 2.92
- %max [10, 34]: 320%

Compound: Cc1cn(CCC#N)c(=O)c2cc(Cn3nc(Br)cc3Cl)nn12
- EC50 [7]: 1.5 µM
- IC50 (Glutamate receptor 2 [8]): > 30 µM
- microsomal CLint at 1 µM [9]: 1 µL/min/mg
- logD [4]: 2.16
- %max [10, 34]: 160%

Compound: CCN(Cc1cc2ccn(CCC#N)c(=O)c2s1)c1ccc(F)cc1
- EC50 [7]: 2.3 µM
- IC50 (Glutamate receptor 2 [8]): > 30 µM
- logD [4]: 2.68
- %max [10, 34]: 450%

Compound: CCN(Cc1cc2c(=O)n(CCC#N)ccn2n1)c1ccc(F)cc1
- EC50 [7]: 5.2 µM
- IC50 (Glutamate receptor 2 [8]): 22 µM
- logD [4]: 2.45
- %max [10, 34]: 420%

Compound: CCc1cn(CCC#N)c(=O)c2sc(CN(CC)c3ccc(F)cc3)cc12
- EC50 [7]: 4.4 µM
- IC50 (Glutamate receptor 2 [8]): > 30 µM
- logD [4]: 3.34
- %max [10, 34]: 410%

Compound: Cc1cn(CCC#N)c(=O)c2cc(Cn3nc(C(F)(F)F)cc3Cl)nn12
- IC50 (Glutamate receptor 2 [8]): 19 µM
- microsomal CLint at 1 µM [9]: 7 µL/min/mg
- logD [4]: 2.32
- %max [10, 34]: 420%
